According to patent US8859496B2, “Pharmaceutical composition using connective-tissue growth factor” (Postech Academy-Industry Foundation, priority 2010, dated 2014):
No end group written: not given here.

Legend:
[1] = target: T1, FPRL1 (Homo sapiens, UniProt P25090); assay: Intracellular Ca2+ measurement (fluo-3-AM) in FPRL1/RBL, vector/RBL or FPR/RBL cells; format: cell-based
T1 construct: expressed in transfected cells; host or cells: rat basophil leukemia RBL-2H3 cells, kept under G418
T1 sequence (P25090 1-351): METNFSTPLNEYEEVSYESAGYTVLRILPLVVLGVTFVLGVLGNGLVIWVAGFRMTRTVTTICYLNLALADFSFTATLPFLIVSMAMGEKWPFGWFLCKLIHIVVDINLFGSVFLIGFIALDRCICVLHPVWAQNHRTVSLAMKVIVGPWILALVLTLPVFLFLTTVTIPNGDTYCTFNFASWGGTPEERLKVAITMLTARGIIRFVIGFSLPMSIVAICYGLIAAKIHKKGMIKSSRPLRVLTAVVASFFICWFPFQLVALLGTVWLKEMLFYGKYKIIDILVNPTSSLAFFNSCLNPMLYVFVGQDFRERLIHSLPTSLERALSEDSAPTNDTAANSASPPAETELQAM
Procedure: (§1) FPRL1/RBL, vector/RBL or FPR/RBL cells were cultured in a fluo-3-AM working solution containing 0.03% (w/v) plutonic F-127 (Molecular Probes) at 37° C. for 1 hour so that the final concentration of fluo-3-AM became 20 uM/L. After the culturing, fluo-3-AM fluorescence occurred at 488 nm with high-power Ar^+ laser in the cells, and the emission band was measured at 530 nm with photomultiplier. Fluorescence signal was detected using confocal laser scanning system (LSM 510 Meta; Carl Zeiss, Jena, Germany) equipped with Nikon E-600 Eclipse microscope. Fluorescence intensities before adding CTGF (F0) and after adding CTGF (F) were measured. Change in the intracelullar Ca^2+ concentration [Ca^2+]i was indicated by F/F0 ratio. From each cell, 50 to 120 images were scanned.
Since activation of FPRL1 increases intracellular Ca^2+ concentration, the inventors confirmed whether CTGF linker polypeptide activates FPRL1 to finally increase intracellular Ca^2+ concentration by the <Experiment method 8>, and the results are shown in FIG. 12.

[2] = test system: HUVECs; assay: ERK phosphorylation in HUVECs (immunoblot); format: cell-based, human
Procedure: Vector/RBL cells, FPR/RBL cells, FPRL1/RBL cells, and HUVECs were cultured to confluence, and serum-starved. The stimulated cells (1×10^5 cells) were washed with PBS twice, dissolved in 1 ml of sample buffer (50 mM Tris-HCl, 100 mM NaCl, 0.1% SDS, 1% Nonidet P-40, 50 mM NaF, 1 mM Na3VO4, 1 μg/ml aprotinin, 1 μg/ml pepstatin, and 1 μg/ml leupeptin), heated at 95° C. for 30 seconds, separated with SDS-PAGE, and then, transferred to a nitrocellulose film. Immunoblot was conducted using anti-phospho-ERK (extracellular signal regulated kinase)1/2 (Thr^202/Tyr^204)(Cell Signaling Technology, Beverly, Mass., USA), anti-ERK1/2 (Cell Signaling Technology, Beverly, Mass., USA), anti-CTGF (Abcam, Cambridge, Mass., USA), anti-Actin (Sigma, St. Louis, Mo., USA), or anti-Flag (Sigma, St. Louis, Mo., USA) antibody, and then, the film was visualized with a chemiluminescence substrate (Amersham Pharmacia).
Meanwhile, HUVECs were treated with the CTGF linker polypeptide or rhCTGF at various concentrations for 5 minutes, cell lysate was obtained, and then, immuboblot was conducted with anti-phospho ERK1/2 antibody, and the results are shown in FIG. 14.

[3] = test system: HUVECs; assay: Intracellular Ca2+ concentration in HUVECs; format: cell-based, human
Procedure: as §1
And, HUVECs were treated with the CTGF linker polypeptide or rhCTGF at various concentrations for 1 hour, it was confirmed whether intracellular Ca^2+ concentration increases by the above method, and the results are shown in FIG. 15.

[4] = test system: HUVECs; assay: HUVEC wound migration assay; format: cell-based, human
Procedure: Specifically, HUVECs inoculated on a 60-mm culture dish to confluence were wounded with the end of a pipette, and treated with linker polypeptide (10^−1˜10^2 nM) or recombinant CTGF (recombinant human CTGF, rhCTGF; BioVendor R&D, NC, USA) (10^1 or 10^2 nM) in Medium 199 to which 1% serum and 1 mM thymidine were added. After culturing 16 hours, the number of cells that migrated over a reference line was counted to quantify the degree of migration, and the cells were photographed with 50× magnification.
First, 20 ng/ml of VEGF-A was administered to HUVECs, the degree of cell proliferation, cell migration, or tube formation was confirmed by the <Experiment method 9>, and the results are shown in FIGS. 22 to 24. At this time, FPRL1 antagonist WRW4 was additionally added.

[5] = target: T1, FPRL1; assay: Flow cytometry binding of biotinylated linker polypeptide to FPRL1/RBL, vector/RBL or FPR/RBL cells
Procedure: To evaluate the degree of binding of linker polypeptide corresponding to the link region of human CTGF, linker polypeptide was labeled using a EZ-Link Micro Sulfo-NHS-LC-Biotinylation kit (Pierce Chemical Co., Rockford, Ill., USA) according to the manufacturer's instruction. The linker polypeptide was cultured at room temperature for 1 hour in PBS with 9 mM sulfo-NHS-LC-biotin (Pierce Chemical Co., Rockford, Ill., USA). During biotinylation, vector/RBL cells, FPR/RBL cells, FPRL1/RBL cells, or HUVECs were treated with trypsin, and collected, and then, treated with rabbit serum at room temperature for 30 minutes. After culturing the biotinylated linker polypeptide in the ice for 30 minutes, the cells were shortly washed with ice-cold PBS, cultured with antihuman fluoroscein-5-isothiocyanate (FITC)-conjugated streptavidin (Pierce Chemical Co.), and then, washed with ice-cold PBS, and fixed with 1% formaldehyde solution. And then, they were analyzed using FACS Caliber system (BD Biosciences, San Jose, Calif.) with CellQuest and WinMDI 2.9 software according to previously known method (He, R., Sang, H. & Ye, R. D. Serum amyloid A induces IL-8 secretion through a G protein-coupled receptor, FPRL1/LXA4R. Blood 101, 1572-1581, 2003). […]

| Substance | Ca2+ concentration, concentration dependence ([1]; FPRL1/RBL cells) | Ca2+ increasing activity compared to rhCTGF and WKYMVm ([1]; FPRL1/RBL cells) | Ca2+ concentration increase, cell specificity ([1]; confocal microscope, FPRL1/RBL, vector/RBL or FPR/RBL cells) | ERK phosphorylation in HUVECs ([2]; various concentrations, 5 minutes) | intracellular Ca2+ concentration in HUVECs ([3]; various concentrations, 1 hour) | migration of HUVECs ([4]; linker polypeptide 10^-1 to 10^2 nM, 16 hours, compared to recombinant CTGF) | binding of biotinylated linker polypeptide to cells ([5]; 10 nM, FPRL1/RBL, vector/RBL or FPR/RBL cells) | effect of antagonist on intracellular Ca2+ increase by CTGF linker polypeptide ([1]; WRW4 10 uM) | effect of antagonist on ERK phosphorylation in HUVECs ([2]; WRW4 10 uM) | effect of antagonist on Ca2+ increase by CTGF linker polypeptide in HUVECs ([3]; WRW4 10 uM) | effect of antagonist on HUVEC migration induced by VEGF-A ([4]; VEGF-A 20 ng/ml, WRW4 10 uM) | effect of antagonist on HUVEC migration induced by CTGF linker polypeptide ([4]; WRW4 10 uM) | effect of antagonist on linker polypeptide binding ([5]; WRW4 10 uM, 30 minutes) |
| --- | --- | --- | --- | --- | --- | --- | --- | --- | --- | --- | --- | --- | --- |
| EWVCDEPKDQTVVGPALAAYRLEDTFGPDPTMIRANCLV (EWVCDEPKDQTVVGPALAAYRLEDTFGPDPTMIRANCLV-NH2; cysteine pairing not given here) [CTGF linker polypeptide] | increases dependently upon the concentration of CTGF linker polypeptide | more effective than rhCTGF and is similar to positive control of FPRL1 agonist WKYMVm | increased only in FPRL1/RBL cells | ERK phosphorylation is effectively induced | increases intracellular Ca^2+ concentration in a concentration-dependent manner | induces migration of HUVECs in a concentration-dependent manner more effectively than recombinant CTGF | binds only to FPRL1/RBL cells |  |  |  |  |  |  |
| WRWWWW (FPRL1 antagonist) [WRW4] |  |  |  |  |  |  |  | the degree of intracellular Ca^2+ concentration increase by CTGF linker polypeptide decreases | ERK phosphorylation is inhibited | that's not the case when the cells are treated with FPRL1 antagonist WRW4 | the cell migration is not induced | the cell migration is not induced | the linker polypeptide binding is inhibited in FPR/RBL cells |
